Source: US20230303599A1, “PRODRUGS OF PHOSPHONAMIDE NUCLEOTIDE ANALOGUES AND THEIR PHARMACEUTICAL USE” (priority 2020, published 2023)
Converted amounts (≈) assume the structure as drawn.

Tests used:
[1] = Cytotoxicity assay in MT-4 cells; assay type: cell-based; settings: human, uninfected MT-4 cells, average of at least two independent experiments, read-out: MT4 CC50
How it was run: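 Uninfected MT-4 cells were incubated 5 days at 37 °C with 1:3 serially diluted compound in RPMI (10% FBS), with 10 μM puromycin as baseline cytotoxicity. Viability was read by CellTiter-Glo luminescence. Values are concentrations giving 50% luminescence decrease, from sigmoidal dose-response fits.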

HBV = test: Antiviral (HBV) assay in primary human hepatocytes (PHHs); assay type: cell-based; settings: Hepatitis B virus, Hepatocyte, 120 h; HBV (GTD) infected PHH, 5 days, HBV DNA in supernatant; average of at least two independent experiments
Method: Example 106: Antiviral (HBV) Assay in Primary Human Hepatocytes (PHHs)
Cryopreserved PHH were thawed, recovered by centrifugation at 100 g in cryopreserved hepatocyte recovery medium (Thermo Fisher Scientific; CM7500), and plated on collagen matrix (Life Technologies; Catalog Number: R-011-K) coated T225 flasks (Corning CellBIND, Catalog Number: 3293) at a density of 25E6 live cells in 60 mls media. Cells were plated in William's E medium (Thermo Fisher Scientific; A1217601) supplemented with 3.6% hepatocyte thawing and plating supplement (Thermo Fisher Scientific, A15563), 5% fetal bovine serum (Thermo Fisher Scientific; 16000-036), 1 μM dexamethasone (Thermo Fisher Scientific, A15563), and 0.2% Torpedo antibiotic mix (Bioreclamation; Z990008). The plating medium was removed after 14 hours and the cells were subsequently cultured in maintenance medium: William's E medium supplemented with 4% hepatocyte maintenance supplement (Thermo Fisher Scientific; AI15564), 2% fetal bovine serum, 0.1μ M dexamethasone, 1.5% DMSO (Sigma-Aldrich, St. Louis, MO; D8418), and 0.2% Torpedo antibiotic mix. Approximately 24 hours after plating, PHH were infected with HepAD38-derived GTD virus at 500 viral genome equivalents per cell in PHH maintenance medium supplemented with 4% PEG 8000 (Promega, Madison, WI; V3011). Infections were allowed to proceed for 24 hours before removing the remaining extracellular virions by washing with maintenance medium three times. After allowing viral infection to take place for 3 days, the infected cells were harvested from the flasks by trypsinization (0.25X in PBS without Ca/Mg, 25 minutes) following a 4 minute 0.5X Versene (Life Technologies Catalog Number: 15040-066) treatment and two PBS washes. Trypsinized cells were inactivated in 10% FBS containing maintenance medium, centrifuged 6 minutes at 50 g, resuspended in hepatocyte maintenance medium, filtered through a 40 uM cell strainer, and adjusted to a density of 0.25E6 cells/ml. Infected cells were seeded on 384 well collagen coated plates (Greiner, Austria) at a density of 20,000 cells/well containing serially diluted compounds of the present disclosure or DMSO (0.5%) in a final volume of 80 μl. The assay plates were incubated for a period of 5 days and the antiviral activity of the test compounds were assayed by detecting the presence of HBV DNA in the culture supernatant using the QuantiGene™ 2.0 nucleic acid quantification kit (Affymetrix, Santa Clara, CA).

[2] = Cytotoxicity assay in primary human hepatocytes (PHHs); assay type: cell-based; settings: HBV-infected primary human hepatocytes, HBV-infected PHH, Cell Titer Glo, average of at least two independent experiments
Method: Example 107: Cytotoxicity Assay in Primary Human Hepatocytes (PHHs)
The HBV-infected primary human hepatocytes are seeded (20K cells/well in 80 uL of Media) in 384well collagen coated plates pre-spotted with compounds. After 5 days, 40 ul of cell supernatant is removed to quantify HBV DNA levels as described in Example 106. Then, 40 ul Cell Titer Glo Reagent (Promega Catalog Number: G7572) is added to the remaining cells and luminescence is measured on the EnVision microplate reader.

[3] = Kinetic solubility analysis; assay type: physicochemical; settings: 1× PBS, 24.2 °C, aqueous buffer, kinetic from dmso stock; pH 7.4 PBS, 1% DMSO, 24-hour incubation at ambient temperature
How it was run: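 Compounds from 10 mM DMSO stocks were incubated in 0.1 N HCl or 1× PBS pH 7.4 (1.0% DMSO, 100 μM maximum theoretical) for 24 h at 24.2-27.5 °C, then vacuum filtered. Filtrates were quantified in μM by chemiluminescent nitrogen detection against a calibration curve, corrected for background nitrogen; values for adjacent ring-nitrogen compounds were raised ~25%.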

SMILES | CC50 at 5 days [1] | EC50 (HBV) | CC50 at 5 days [2] | solubility kinetic at 24 h [3]
C[C@H](Cn1cnc2c(N)ncnc21)OCP(=O)(NC(C)(C)C(=O)O[C@H]1C[C@@H](C(C)(C)C)C1)NC(C)(C)C(=O)O[C@H]1C[C@@H](C(C)(C)C)C1 [Example 51, Bis((1S,3S)-3-(tert-butyl)cyclobutyl) 2,2′-((((((R)-1-(6-amino-9H-purin-9-yl)propan-2-yl)oxy)methyl)phosphoryl)bis(azanediyl))bis(2-methylpropanoate)] | 7250 nM | 6 nM | > 100 nM | 6 µg/mL (≈ 8.85 µM)
C[C@H](Cn1cnc2c(N)ncnc21)OCP(=O)(NC(C)(C)C(=O)OC1CC2(CCCCC2)C1)NC(C)(C)C(=O)OC1CC2(CCCCC2)C1 (stereo partly drawn) [Example 86, Di(spiro[3.5]nonan-2-yl) 2,2′-(((((1-(6-amino-9H-purin-9-yl)propan-2-yl)oxy)methyl)phosphoryl)bis(azanediyl))(R)-bis(2-methylpropanoate)] | 3730 nM | 3.16 nM | > 100 nM | 2 µg/mL (≈ 2.85 µM)
CCCCCCOC(=O)C(C)(C)NP(=O)(CO[C@H](C)Cn1cnc2/c(=N\Cc3oc(=O)oc3C)n(Cc3oc(=O)oc3C)cnc21)NC(C)(C)C(=O)OCCCCCC [Example 84, Dihexyl 2,2′-(((((1-(1-((5-methyl-2-oxo-1,3-dioxol-4-yl)methyl)-6-(((5-methyl-2-oxo-1,3-dioxol-4-yl)methyl)imino)-1,6-dihydro-9H-purin-9-yl)propan-2-yl)oxy)methyl)phosphoryl)bis(azanediyl))(R,E)-bis(2-methylpropanoate)] | 10600 nM | 3.37 nM | > 100 nM | 8 µg/mL (≈ 9.41 µM)
C[C@H](Cn1cnc2c(N)ncnc21)OCP(=O)(NC(C)(C)C(=O)OCCC1CCCCC1)NC(C)(C)C(=O)OCCC1CCCCC1 [Example 14, Bis(2-cyclohexylethyl) 2,2′-(((((1-(6-amino-9H-purin-9-yl)propan-2-yl)oxy)methyl)phosphoryl)bis(azanediyl))(R)-bis(2-methylpropanoate)] | 3190 nM | 2.57 nM | > 100 nM | 27 µg/mL (≈ 39.8 µM)
C[C@H](Cn1cnc2c(N)ncnc21)OCP(=O)(NC(C)(C)C(=O)O[C@H]1C[C@H](C(C)(C)C)C1)NC(C)(C)C(=O)O[C@H]1C[C@H](C(C)(C)C)C1 [Example 52, Bis((1R,3R)-3-(tert-butyl)cyclobutyl) 2,2′-((((((R)-1-(6-amino-9H-purin-9-yl)propan-2-yl)oxy)methyl)phosphoryl)bis(azanediyl))bis(2-methylpropanoate)] | 7190 nM | 14.4 nM | > 100 nM | < 1 µg/mL
C[C@H](Cn1cnc2c(N)ncnc21)OCP(=O)(NC(C)(C)C(=O)OCC1CCCCC1)NC(C)(C)C(=O)OCC1CCCCC1 [Example 46, Bis(cyclohexylmethyl) 2,2′-(((((1-(6-amino-9H-purin-9-yl)propan-2-yl)oxy)methyl)phosphoryl)bis(azanediyl))(R)-bis(2-methylpropanoate)] | 4160 nM | 2.51 nM | > 100 nM | < 1 µg/mL
C[C@H](Cn1cnc2c(N)ncnc21)OCP(=O)(NC(C)(C)C(=O)OCC1CC2(C1)CC(F)(F)C2)NC(C)(C)C(=O)OCC1CC2(C1)CC(F)(F)C2 [Example 58, Bis((6,6-difluorospiro[3.3]heptan-2-yl)methyl) 2,2′-(((((1-(6-amino-9H-purin-9-yl)propan-2-yl)oxy)methyl)phosphoryl)bis(azanediyl))(R)-bis(2-methylpropanoate)] | 3680 nM | 1.26 nM | > 100 nM | 51 µg/mL (≈ 68.4 µM)
C[C@H](Cn1cnc2c(N)ncnc21)OCP(=O)(NC(C)(C)C(=O)O[C@@H](C)C1CCCCC1)NC(C)(C)C(=O)O[C@@H](C)C1CCCCC1 [Example 56, Bis((S)-1-cyclohexylethyl) 2,2′-((((((R)-1-(6-amino-9H-purin-9-yl)propan-2-yl)oxy)methyl)phosphoryl)bis(azanediyl))bis(2-methylpropanoate)] | 9650 nM | 3.99 nM | > 100 nM | 5 µg/mL (≈ 7.38 µM)
C[C@H](Cn1cnc2c(N)ncnc21)OCP(=O)(NC(C)(C)C(=O)O[C@H]1CC[C@H](C(F)(F)F)CC1)NC(C)(C)C(=O)O[C@H]1CC[C@H](C(F)(F)F)CC1 [Example 21, Bis(trans-4-(trifluoromethyl)cyclohexyl) 2,2′-((((((R)-1-(6-amino-9H-purin-9-yl)propan-2-yl)oxy)methyl)phosphoryl)bis(azanediyl))bis(2-methylpropanoate)] | 4470 nM | 3.55 nM | > 100 nM | 39 µg/mL (≈ 51.5 µM)
CCC(C)(C)CCOC(=O)C(C)(C)NP(=O)(CO[C@H](C)Cn1cnc2c(N)ncnc21)NC(C)(C)C(=O)OCCC(C)(C)CC [Example 54, Bis(3,3-dimethylpentyl) 2,2′-(((((1-(6-amino-9H-purin-9-yl)propan-2-yl)oxy)methyl)phosphoryl)bis(azanediyl))(R)-bis(2-methylpropanoate)] | 6720 nM | 4.45 nM | > 100 nM | 12 µg/mL (≈ 18.4 µM)
C[C@H](Cn1cnc2c(N)ncnc21)OCP(=O)(NC(C)(C)C(=O)OCC12CC3CC(CC(C3)C1)C2)NC(C)(C)C(=O)OCC12CC3CC(CC(C3)C1)C2 [Example 59, Bis(((1S,3S)-adamantan-1-yl)methyl) 2,2′-((((((R)-1-(6-amino-9H-purin-9-yl)propan-2-yl)oxy)methyl)phosphoryl)bis(azanediyl))bis(2-methylpropanoate)] | 6960 nM | 6.53 nM | > 100 nM | < 1 µg/mL
CCC(CC)COC(=O)C(C)(C)NP(=O)(CO[C@H](C)Cn1cnc2c(N)ncnc21)NC(C)(C)C(=O)OCC(CC)CC [Example 2, Bis(2-ethylbutyl) 2,2′-(((((1-(6-amino-9H-purin-9-yl)propan-2-yl)oxy)methyl)phosphoryl)bis(azanediyl))(R)-bis(2-methylpropanoate)] | 6090 nM | 0.69 nM | > 1000 nM | 65 µg/mL (≈ 104 µM)
C[C@H](Cn1cnc2c(N)ncnc21)OCP(=O)(NC(C)(C)C(=O)O[C@@H]1C[C@@H]2C[C@@H]2C1)NC(C)(C)C(=O)O[C@@H]1C[C@@H]2C[C@@H]2C1 [Example 60, Di((1R,3R,5S)-bicyclo[3.1.0]hexan-3-yl) 2,2′-((((((R)-1-(6-amino-9H-purin-9-yl)propan-2-yl)oxy)methyl)phosphoryl)bis(azanediyl))bis(2-methylpropanoate)] | 3310 nM | 1.44 nM | > 100 nM | 76 µg/mL (≈ 123 µM)
CCCCCCOC(=O)C(C)(C)NP(=O)(CO[C@H](C)Cn1cnc2c(NC(=O)OCc3oc(=O)oc3C)ncnc21)NC(C)(C)C(=O)OCCCCCC [Example 33, Dihexyl 2,2′-(((((1-(6-((((5-methyl-2-oxo-1,3-dioxol-4-yl)methoxy)carbonyl)amino)-9H-purin-9-yl)propan-2-yl)oxy)methyl)phosphoryl)bis(azanediyl))(R)-bis(2-methylpropanoate)] | 6620 nM | 2.62 nM | > 100 nM | 14 µg/mL (≈ 17.9 µM)
